From patent US6043228A, “O^6 -substituted guanine derivatives, a process for their preparation and their use in treating tumor cells” (Cancer Research Campaign Technology Limited, priority 1993, dated 2000) come the findings set out here.

SMILES strings stand for the structures. “Also recorded” adds a separate entry of the source. Where two headings read alike, the source gives them in different places.

One series deals with T1, recombinant human ATase (Homo sapiens, UniProt P16455).
T1 construct: made in house
T1 sequence (P16455 1-207): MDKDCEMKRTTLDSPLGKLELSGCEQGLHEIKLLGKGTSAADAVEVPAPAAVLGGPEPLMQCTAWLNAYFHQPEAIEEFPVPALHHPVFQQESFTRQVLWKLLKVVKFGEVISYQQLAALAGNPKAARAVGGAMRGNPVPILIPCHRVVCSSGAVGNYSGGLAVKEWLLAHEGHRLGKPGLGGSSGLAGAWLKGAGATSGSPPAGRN
Briefly: In vitro ATase inactivation assay (incubation with inactivators and ATase assay). The following applies: for ATase inactivation in vitro, result in words: recombinant human ATase, standard conditions. The class given is biochemical. As to the method:
The cDNA cloning and overexpression of the human ATase has been reported previously^23. Purification of the recombinant proteins was achieved either by affinity chromatography through a DNA-cellulose column as described by Wilkinson et al.,^25, 26 or by DEAE-cellulose ion-exchange chromatography. For the latter, the ATase protein was partially purified by ammonium sulphate precipitation (30-60%) and dialysed against 10 mM Tris-HCl pH 7.5, 1 mM DTT, 2 mM EDTA, 10% glycerol, before loading on a DEAE-cellulose column. The ATase was then eluted with a 0-0.1 M NaCl gradient.
Compounds to be tested were dissolved in DMSO to a final concentration of 10 mM and diluted just before use in buffer I containing 1 mg/ml bovine serum albumin (IBSA). Recombinant ATase was diluted in IBSA and titrated in order that the reaction be conducted under ATase, and not substrate, limiting conditions. […] Following acid hydrolysis of the DNA as previously described^21 the [^3 H]-methylated protein was recovered and quantitated by liquid scintillation counting. Samples were typically assayed in duplicate and experiments repeated several times. I50 is the concentration of inactivator required to produce a 50% reduction in ATase activity.

Series [1] relates to Raji cells. The series can be described thus: Sensitization of Raji cells to BCNU (XTT assay). It counts as cell-based, human. The note with it: 1.0 μM inactivator (FIG. 2). As to the method:
(§1) Following a 2 hour incubation at 37° C., medium containing either increasing doses of BCNU, temozolomide or equivalent vehicle was added and the cells allowed to grow for 6 days. At this time XTT solution was added and the cells incubated for a further 4 hours at 37° C. The resulting red/orange formazan reaction product was quantified by measuring absorption at 450 nm on a microtitre platereader.

Series [2] deals with Raji cells. The series can be described thus: Sensitization of Raji cells to temozolomide (XTT assay). The note with it: 0.1-5.0 μM inactivator (FIGS. 3, 4). The class given is cell-based, human. On the procedure:
as §1

Series [3] has as its system human bone marrow granulocyte macrophage colony forming cells. The series can be described thus: Sensitization of bone marrow cells to temozolomide (GM-CFC assay). The class given is cell-based. From the text:
For the granulocyte/macrophage colony-forming cell (GM-CFC) assay primary human bone marrow samples were obtained from patients undergoing cardiothoracic surgery. […] The colonies represented precursor cells of the granulocyte/macrophage lineage (huGM-CFC). Survival was expressed as a % of the number of colonies at zero dose temozolomide.

For series [4], the target named is T2, ATase in human melanoma xenografts (Homo sapiens, UniProt P16455).
T2 construct: A375M cells are human melanoma cells from which the xenografts described below were established; endogenous in cells; host or cells: A375M xenograft grown in nude mice
T2 sequence (P16455 1-207): T1 sequence (P16455 1-207)
The series can be described thus: ATase activity in human melanoma (A375) xenografts grown in nude mice after inactivator. The following applies: single i.p. dose 30 or 60 mg/kg (FIG. 17). It counts as in vivo. As to the method:
Cells (10^6) in 100 μl of PBS were injected subcutaneously into the right-hand flank of 8-10 week old nu/nu athymic mice. These cells were allowed to develop into a tumour for 3-4 weeks for passaging into experimental animals. Tumour blocks measuring 2 mm×2 mm×2 mm were implanted subcutaneously on the right hand flank. These animals were ready for use in inactivator experiments in 7-10 days.
ATase substrate DNA was prepared by incubation of purified calf thymes DNA with N-[^3 H]-methyl-N-nitrosuourea (18.7 Ci/mmole, Amersham International). Cell or tissue extracts (see 4.4) were incubated with [^3 H]-methylated-DNA substrate (100 μl containing 6.7 μg of DNA and 100 fmol of O^6 -[^3 H]methylguanine) at 37° C. for 60 mins. Following acid hydrolysis of the DNA as precviously described^21the [^3 H]-methylated protein was recovered and quantitated by liquid scintillation counting.
Mice were treated with the inactivator as a suspension in corn oil by intraperitoneal injection (i.p.) or by oral gavage (p.o.) 60 mins prior to temozolomide (100 mg/kg in 20% DMSO in phosphate-buffered saline) which was always given by intraperitoneal injection: this schedule was repeated on days 1 to 5 inclusive. Controls received vehicle alone, inactivator alone or temozolomide alone.

The next series concerns nude mice. Briefly: Xenograft study: survival of nude mice given inactivator plus BCNU. The note with it: in combination with BCNU (FIGS. 9-13). An excerpt: BALB-C derived athymic male mice (nu/nu athymic) weighing between 25-35 g were obtained from the in-house breeding colony of the Paterson Institute for Cancer Research, Christie Hospital NHS Trust, Wilmslow Road, Manchester M20 9BX, England (ASU mice). The animals were housed in a sterile environment until required for experiments. In one experiment mice were obtained from Harlan-Olac, Harlan UK Limited, Shaw's Farm, Blackthorn, Bicester, Oxon. OX6 OPT, England (OLAC mice).

Series [5] in a line: Toxicity of inactivators in combination with BCNU in DBA2 mice. It counts as in vivo, mouse. The note with it: mouse, in vivo, ip, 60 mg/kg, single i.p. dose, read-out: % SURVIVAL AFTER 14 DAYS. From the text: All agents were given as a single i.p. dose
Where [6] appears, read: Table 9, pure recombinant ATase in vitro, read-out: I50 (μm).

For `Nc1nc(OCc2cc(Cl)c(Cl)s2)c2nc[nH]c2n1` [B.4318, O^6-(4,5-dichlorothenyl)guanine], the IC50 on recombinant human ATase (setting [6]) stood at 15 nM. For `COc1csc(COc2nc(N)nc3[nH]cnc23)c1` [B.4300, O^6-(4-methoxythenyl)guanine], at recombinant human ATase (setting [6]), the IC50 worked out at 16.5 nM. Consider `N#Cc1csc(COc2nc(N)nc3[nH]cnc23)c1` [B.4317, O^6-(4-cyanothenyl)guanine], for which, on recombinant human ATase (setting [6]), the IC50 was 2.8 nM. Also, the “ATase inactivation in vitro, result in words” value (“ATase inactivation in vitro” for short) at recombinant human ATase is “more efficient inactivator in vitro than its 5-cyano analogue B.4283 or the unsubstituted thenyl derivative B.4205”. `Nc1nc(OCc2cncs2)c2nc[nH]c2n1` [B.4275, 0^6-(5-thiazolylmethyl)guanine]: the “ATase inactivation in vitro” value at recombinant human ATase was “I50 values lower than that of BeG”. The same measure, in the same setting: under `CC(Oc1nc(N)nc2[nH]cnc12)c1ccccc1` (racemic) [B.4214, DL-0^6 -(α-methylbenzyl)guanine, reference compound] stands “reduce greatly the inactivating activity; also recorded: did not inactivate ATase up to the highest concentration used”. Consider `Nc1nc(OCc2csc(Br)c2)c2nc[nH]c2n1` [B.4313, O^6-(5-bromo-3-thienylmethyl)guanine], for which the IC50 at recombinant human ATase (setting [6]) worked out at 6.5 nM. `Nc1nc(OCc2ccc(Br)s2)c2nc[nH]c2n1` [B.4269, 0^6-(5-bromothenyl)guanine]: on recombinant human ATase, the “ATase inactivation in vitro” value is “more efficient than the unsubstituted thenyl derivative B.4205; also recorded: I50 values lower than that of BeG”. `N#Cc1ccc(COc2nc(N)nc3[nH]cnc23)s1` [B.4283, O^6-(5-cyanothenyl)guanine]: on recombinant human ATase (setting [6]), the IC50 was 5 nM. In the case of `Nc1nc(OCc2ccnc(Cl)c2)c2nc[nH]c2n1` [B.4321, O^6-(2-chloro-4-picolyl)guanine], at recombinant human ATase (setting [6]), the IC50 worked out at 40 nM. On the same count and under the same terms, under `C[S+]([O-])c1ccc(COc2nc(N)nc3[nH]cnc23)s1` (stereo not drawn) [B.4294, O^6-(5-methylsulphinylthenyl)guanine] stands 30 nM.

For the compound `Nc1nc(OCc2cc3ccccc3o2)c2nc[nH]c2n1` [B.4266, 0^6-(2-benzofuranylmethyl)guanine], at recombinant human ATase, the “ATase inactivation in vitro” value is listed as “I50 values lower than that of BeG”. As to `Nc1nc(OCc2ccc(Br)o2)c2nc[nH]c2n1` [B.4336, O^6-(5-bromofurfuryl)guanine], the IC50 on recombinant human ATase (setting [6]) turned out to be 20 nM. On the same count and under the same terms, to `Nc1nc(OCc2ccc(Cl)s2)c2nc[nH]c2n1` [B.4281, O^6-(5-chlorothenyl)guanine] belongs 4 nM.

`COc1ccccc1COc1nc(N)nc2[nH]cnc12` [B.4231, O^6-(2-methoxybenzyl)guanine, reference compound]: the IC50 at recombinant human ATase (Table 4, 1 hour incubation with inactivator at 37° C., read-out: I50) worked out at 60000 nM. For the compound `N#Cc1ccc(COc2nc(N)nc3[nH]cnc23)o1` [B.4273, 0^6-(5-cyanofurfuryl)guanine], the “ATase inactivation in vitro” value on recombinant human ATase is “I50 values lower than that of BeG”. In the case of `Nc1nc(OCc2cc(Cl)cs2)c2nc[nH]c2n1` [B.4298, O^6-(4-chlorothenyl)guanine], the IC50 on recombinant human ATase (setting [6]) was found to be 8 nM. For the compound `CC(Oc1nc(N)nc2[nH]cnc12)c1cccs1` (racemic) [B.4217, DL-0^6 -(α-methylthenyl)guanine], on recombinant human ATase, the “ATase inactivation in vitro” value is “reduce greatly the inactivating activity; also recorded: did not inactivate ATase up to the highest concentration used”. Take `Nc1nc(OCc2ccccc2)c2nc[nH]c2n1` [O^6 -benzylguanine, reference compound]: the “sensitizing Raji cells to growth inhibitory effects of BCNU, in words” value with Raji cells [1] was “equally effective”. Moreover, the “dose response of Raji sensitization to temozolomide, in words” value with Raji cells [2] is given as “clear dose response”. Further, in series [3] (four different patient samples, 10 μM (FIG. 23)), the “sensitization of GM-CFC to cytotoxic effects of temozolomide, in words” value was “sensitized”. Besides, the “sensitization of GM-CFCs to toxic effects of temozolomide, in words” value in series [3] (three human bone marrow samples (FIG. 14)) is “sensitised”. Also, the “inactivation of ATase in human melanoma xenografts, in words” value in series [4] is on record as “inactivated”. The “death of treated animals” value in the series with nude mice is on record as “up to 70%”. The figures for the survival at 336 h in series [5] (inactivator 60 mg/kg + 10 mg/kg BCNU), in series [5] (inactivator 60 mg/kg + 15 mg/kg BCNU (footnote *)) and in series [5] (inactivator 60 mg/kg + 20 mg/kg BCNU) were 50%, 0% and 33%, respectively.

On to `Nc1nc(OCc2ccsc2)c2nc[nH]c2n1` [B.4206, 0^6-(3-thienylmethyl)guanine], for which, on recombinant human ATase, the “ATase inactivation in vitro” value is recorded as “somewhat more effective than BeG; also recorded: I50 values lower than that of BeG”.

`Nc1nc(OCc2cc3ccccc3s2)c2nc[nH]c2n1` [B.4226, 0^6-(2-benzo[b]thienylmethyl)guanine]: at recombinant human ATase, the “ATase inactivation in vitro” value is “I50 values lower than that of BeG”. With `Nc1nc(OCc2ccc3c(c2)OCO3)c2nc[nH]c2n1` [B.4212, 0^6 -piperonylguanine], the “ATase inactivation in vitro” value on recombinant human ATase was “considerably better; also recorded: I50 values lower than that of BeG”.
